The subject of test [1] is isolated gastric fundic gland. Put plainly: CAP: Acid Secretion Inhibition Test In Vitro ([14C]-aminopyrine uptake). The format is cell-based, rabbit (male Japanese White). The following applies: Oryctolagus cuniculus; final concentration 10^-5 M; histamine 10^-5 M stimulation; read-out: CAP: acid secretion inhibitory rate. The method, boiled down: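 Collagenase-isolated rabbit gastric fundic glands (1.6×10^6 cells/ml) were stimulated with 10^-5 M histamine in the presence of test compound and [14C]-aminopyrine, then shaken 40 min at 37 °C. Pellet versus supernatant radioactivity, corrected with a 20 mM NaSCN sample, gives specific aminopyrine accumulation as the acid-secretion index; duplicates.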

In test [2] the test system is stress ulcer formation in rats. Put plainly: WIS: Restraint and Water Immersion Stress-Induced Ulcer Inhibition Test. The format is in vivo, rat (male Crj:SD or Slc:SD). The following applies: 100 mg/kg oral, 10 minutes before 7 h restraint and water immersion (21° C.). The method, boiled down: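 Overnight-fasted male SD rats (6–7 weeks, n=5–8) dosed orally at 100 mg/kg in 0.3% CMC-Na or 0.05% Tween 80; 10 min later restrained and immersed to xiphoid in 21° C water for 7 h. Ulcer index is summed glandular erosion length; inhibition % = (1 − UI sample/UI control).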

The structures appear in SMILES notation.

On to `CCN(CC)CCNC(=O)c1cc(OCC=C(C)C)cc(OCC=C(C)C)c1` [Example 14], for which the inhibition at 10 µM in test [1] amounted to 100%. Moreover, the “WIS: ulcer formation inhibitory rate” value in test [2] worked out at 86%.
For `CCN(CC)CCNC(=O)c1cc(OC/C=C(\C)CCC=C(C)C)ccc1OC/C=C(\C)CCC=C(C)C` [Example 16] the same measures were 100% and 82%.
With `CC(C)=CCC/C(C)=C/COc1ccc(OC/C=C(\C)CCC=C(C)C)c(C(=O)NCCN(C(C)C)C(C)C)c1` [Example 17], in test [1], the inhibition at 10 µM came to 100%. Further, in test [2], the “WIS: ulcer formation inhibitory rate” value was determined as 62%.
For `CCN(CC=C(C)C)c1ccc(C(=O)NCCN(C(C)C)C(C)C)cc1` [Example 28] the same measures were 27.3% and 87%.
Take `CCN(CC)CCNC(=O)c1cc(OC)c(OC/C=C(\C)CCC=C(C)C)c(OC)c1` [Example 37]: the inhibition at 10 µM in test [1] was 99.3%. Further, the “WIS: ulcer formation inhibitory rate” value in test [2] was 69%.
For `CCN(CC)CCNC(=O)c1cc(OC)c(OC/C=C(/C)CCC=C(C)C)c(OC)c1` [Example 38] the same measures were 99.8% and 86%.
For `COc1cc(C(=O)NCCN(C)C)cc(OC/C=C(\C)CCC=C(C)C)c1OC` [Example 42] the same measures were 98.6% and 81%.

These data come from patent US6001880A, “Alkylenediamine derivative, anti-ulcer drug, and antibacterial drug” (Shiseido Co., Ltd., priority 1997, dated 1999).
